Source: US11471417B2 (Small Pharma Ltd, priority 2020, dated 2022)

Test system: not listed separately
Assay: In vitro intrinsic clearance in human hepatocytes, D2, D6 and D8 DMT (third experiment)
Conditions: both, hepatocytes (pooled, 10 donors)

SMILES	half-life at 5 μM [min]	hepatocyte CLint at 5 μM [µL/min/1e6 cells]
[2H]C([2H])(Cc1c[nH]c2ccccc12)N(C)C [SPL028i, α,α-dideutero-N,N-dimethyltryptamine]	233	8.3
O=C(O)Cc1ccccc1Nc1c(Cl)cccc1Cl [Diclofenac]	20.7	92.5
COc1ccc([C@@H]2Sc3ccccc3N(CCN(C)C)C(=O)[C@@H]2OC(C)=O)cc1 [Diltiazem]	87.3	22
CN(C)CCc1c[nH]c2ccccc12 [SPL026, N,N-dimethyltryptamine]	98.9	19.4

Test system: not listed separately
Assay: In vitro human mitochondrial fraction intrinsic clearance of SPL026 and SPL028 analogues
Conditions: 0.5 mg/mL human liver mitochondrial fraction; first experiment r7-r12, repeat r13-r20

SMILES	half-life [min]	Intrinsic Clearance [μL/min/mg protein]
[2H]C([2H])(Cc1c[nH]c2ccccc12)N(C)C [SPL028i, α,α-dideutero-N,N-dimethyltryptamine]	92.8	–
[2H]C([2H])([2H])N(C([2H])([2H])[2H])C([2H])([2H])Cc1c[nH]c2ccccc12 [SPL028viii, α,α-dideutero-N,N-bis(trideutero)dimethyltryptamine]	112.2	12.7
NCCc1c[nH]c2ccc(O)cc12 [Serotonin]	–	157.0
CN(C)CCc1c[nH]c2ccccc12 [SPL026, N,N-dimethyltryptamine]	8.6	161.0
NCc1ccccc1 [Benzylamine]	–	62.1

Same assay, conditions: human mitochondrial fraction assays

SMILES	increase in metabolic stability [fold]
[2H]C([2H])([2H])N(C([2H])([2H])[2H])C([2H])([2H])Cc1c[nH]c2ccccc12 [SPL028viii, α,α-dideutero-N,N-bis(trideutero)dimethyltryptamine]	14

Same assay, conditions: human, liver mitochondrial fraction, Half-Life R1, human liver mitochondrial fraction, replicate R1

SMILES	half-life [min]
[2H]C([2H])(Cc1c[nH]c2ccccc12)N(C)C [SPL028i, α,α-dideutero-N,N-dimethyltryptamine]	86.1
NCCc1c[nH]c2ccc(O)cc12 [Serotonin]	9.3
CN(C)CCc1c[nH]c2ccccc12 [SPL026, N,N-dimethyltryptamine]	8.8
NCc1ccccc1 [Benzylamine]	24.3

Same assay, conditions: human, liver mitochondrial fraction, Half-Life R2, human liver mitochondrial fraction, replicate R2

SMILES	half-life [min]
[2H]C([2H])(Cc1c[nH]c2ccccc12)N(C)C [SPL028i, α,α-dideutero-N,N-dimethyltryptamine]	99.4
NCCc1c[nH]c2ccc(O)cc12 [Serotonin]	9.1
CN(C)CCc1c[nH]c2ccccc12 [SPL026, N,N-dimethyltryptamine]	8.4
NCc1ccccc1 [Benzylamine]	22.1

Same assay, conditions: human, liver mitochondrial fraction, Half-Life R3, human liver mitochondrial fraction, replicate R3

SMILES	half-life [min]
[2H]C([2H])(Cc1c[nH]c2ccccc12)N(C)C [SPL028i, α,α-dideutero-N,N-dimethyltryptamine]	82.6
[2H]C([2H])([2H])N(C([2H])([2H])[2H])C([2H])([2H])Cc1c[nH]c2ccccc12 [SPL028viii, α,α-dideutero-N,N-bis(trideutero)dimethyltryptamine]	92.9
NCCc1c[nH]c2ccc(O)cc12 [Serotonin]	9.1
[2H]C([2H])([2H])N(CCc1c[nH]c2ccccc12)C([2H])([2H])[2H] [SPL028vii, N,N-bis(trideutero)dimethyltryptamine]	9.4
CN(C)CCc1c[nH]c2ccccc12 [SPL026, N,N-dimethyltryptamine]	7.6
NCc1ccccc1 [Benzylamine]	21.2

Same assay, conditions: human, liver mitochondrial fraction, Half-Life R4, human liver mitochondrial fraction, replicate R4

SMILES	half-life [min]
[2H]C([2H])(Cc1c[nH]c2ccccc12)N(C)C [SPL028i, α,α-dideutero-N,N-dimethyltryptamine]	72.1
NCCc1c[nH]c2ccc(O)cc12 [Serotonin]	8.5
[2H]C([2H])([2H])N(CCc1c[nH]c2ccccc12)C([2H])([2H])[2H] [SPL028vii, N,N-bis(trideutero)dimethyltryptamine]	10.9
CN(C)CCc1c[nH]c2ccccc12 [SPL026, N,N-dimethyltryptamine]	8.3
NCc1ccccc1 [Benzylamine]	23.5

Same assay, conditions: human, liver mitochondrial fraction, Half-life, 0.5 mg/mL human liver mitochondrial fraction; first experiment r7-r12, repeat r13-r20

SMILES	half-life [min]
[2H]C([2H])(Cc1c[nH]c2ccccc12)N(C)C [SPL028i, α,α-dideutero-N,N-dimethyltryptamine]	77.3
[2H]C([2H])([2H])N(CCc1c[nH]c2ccccc12)C([2H])([2H])[2H] [SPL028vii, N,N-bis(trideutero)dimethyltryptamine]	10.2
CN(C)CCc1c[nH]c2ccccc12 [SPL026, N,N-dimethyltryptamine]	7.9

Same assay, conditions: human, liver mitochondrial fraction, Intrinsic Clearance, 0.5 mg/mL human liver mitochondrial fraction; first experiment r7-r12, repeat r13-r20

SMILES	microsomal CLint [µL/min/mg]
[2H]C([2H])([2H])N(C([2H])([2H])[2H])C([2H])([2H])Cc1c[nH]c2ccccc12 [SPL028viii, α,α-dideutero-N,N-bis(trideutero)dimethyltryptamine]	10.9
NCCc1c[nH]c2ccc(O)cc12 [Serotonin]	151
[2H]C([2H])([2H])N(CCc1c[nH]c2ccccc12)C([2H])([2H])[2H] [SPL028vii, N,N-bis(trideutero)dimethyltryptamine]	137
CN(C)CCc1c[nH]c2ccccc12 [SPL026, N,N-dimethyltryptamine]	175
NCc1ccccc1 [Benzylamine]	60

Test system: not listed separately
Assay: In vitro human mitochondrial fraction intrinsic clearance of SPL026 with/without MAO-A and MAO-B inhibitors
Type: in vitro ADME
Conditions: 0.5 mg/mL human liver mitochondrial fraction, DMSO Vehicle (no inhibitor)

SMILES	half-life [min]	microsomal CLint [µL/min/mg]
NCCc1c[nH]c2ccc(O)cc12 [Serotonin]	11.1	125
CN(C)CCc1c[nH]c2ccccc12 [SPL026, N,N-dimethyltryptamine]	33.7	42.9
NCc1ccccc1 [Benzylamine]	30.4	45.7

Same assay, conditions: human liver mitochondrial fraction

SMILES	increase in intrinsic clearance with MAO-A inhibitor (Clorgyline) compared to SPL026 without MAO inhibitors [fold]
CN(C)CCc1c[nH]c2ccccc12 [SPL026, N,N-dimethyltryptamine]	10

Same assay, conditions: with 100 nM Deprenyl/Selegiline (MAO-B inhibitor); 0.5 mg/mL human liver mitochondrial fraction, Deprenyl (MAO-B inhibitor) 100 nM

SMILES	half-life [min]	microsomal CLint [µL/min/mg]
CN(C)CCc1c[nH]c2ccccc12 [SPL026, N,N-dimethyltryptamine]	32.5	42.7
NCc1ccccc1 [Benzylamine]	> 420	< 3.3

Same assay, conditions: with 100 nM clorgyline (MAO-A inhibitor); 0.5 mg/mL human liver mitochondrial fraction, Clorgyline (MAO-A inhibitor) 100 nM

SMILES	half-life [min]	microsomal CLint [µL/min/mg]
NCCc1c[nH]c2ccc(O)cc12 [Serotonin]	> 420	< 3.3
CN(C)CCc1c[nH]c2ccccc12 [SPL026, N,N-dimethyltryptamine]	> 374	< 3.9

Test system: not listed separately
Assay: In vitro intrinsic clearance in human hepatocytes with and without MAO inhibitors (first experiment)
Conditions: both, human, hepatocytes (pooled, 10 donors), Half-life With inhibitors, human hepatocytes, with MAO-A/B inhibitor combination (Table 5)

SMILES	half-life at 5 μM [min]
[2H]C([2H])(Cc1c[nH]c2ccccc12)N(C)C [SPL028i, α,α-dideutero-N,N-dimethyltryptamine]	170
CN(C)CCc1c[nH]c2ccccc12 [SPL026, N,N-dimethyltryptamine]	96.1
NCc1ccccc1 [Benzylamine]	460

Same assay, conditions: both, human, hepatocytes (pooled, 10 donors), Half-life Without inhibitors, human hepatocytes, without MAO-A/B inhibitor combination (Table 5)

SMILES	half-life at 5 μM [min]
NCCc1c[nH]c2ccc(O)cc12 [Serotonin]	33
CN(C)CCc1c[nH]c2ccccc12 [SPL026, N,N-dimethyltryptamine]	92.4
NCc1ccccc1 [Benzylamine]	76.3

Same assay, conditions: both, human, hepatocytes (pooled, 10 donors), Intrinsic clearance With inhibitors, human hepatocytes, with MAO-A/B inhibitor combination (Table 5)

SMILES	hepatocyte CLint at 5 μM [µL/min/1e6 cells]
[2H]C([2H])(Cc1c[nH]c2ccccc12)N(C)C [SPL028i, α,α-dideutero-N,N-dimethyltryptamine]	7.5
NCCc1c[nH]c2ccc(O)cc12 [Serotonin]	10.1
CN(C)CCc1c[nH]c2ccccc12 [SPL026, N,N-dimethyltryptamine]	13.2
NCc1ccccc1 [Benzylamine]	< 3

Same assay, conditions: both, human, hepatocytes (pooled, 10 donors), Intrinsic clearance Without inhibitors, human hepatocytes, without MAO-A/B inhibitor combination (Table 5)

SMILES	hepatocyte CLint at 5 μM [µL/min/1e6 cells]
[2H]C([2H])(Cc1c[nH]c2ccccc12)N(C)C [SPL028i, α,α-dideutero-N,N-dimethyltryptamine]	7.15
NCCc1c[nH]c2ccc(O)cc12 [Serotonin]	38.6
CN(C)CCc1c[nH]c2ccccc12 [SPL026, N,N-dimethyltryptamine]	13.8
NCc1ccccc1 [Benzylamine]	16.7

Same assay, conditions: both, human, hepatocytes (pooled, 10 donors), in vitro half-life With inhibitors, human hepatocytes, 5 μM, with 100 nM clorgyline and 100 nM Deprenyl/Selegiline (Table 4)

SMILES	half-life at 5 μM [min]
[2H]C([2H])(Cc1c[nH]c2ccccc12)N(C)C [SPL028i, α,α-dideutero-N,N-dimethyltryptamine]	170
CN(C)CCc1c[nH]c2ccccc12 [SPL026, N,N-dimethyltryptamine]	96.1
NCc1ccccc1 [Benzylamine]	460

Same assay, conditions: both, human, hepatocytes (pooled, 10 donors), in vitro half-life Without inhibitors, human hepatocytes, 5 μM, without MAO inhibitors (Table 4)

SMILES	half-life at 5 μM [min]
NCCc1c[nH]c2ccc(O)cc12 [Serotonin]	33
CN(C)CCc1c[nH]c2ccccc12 [SPL026, N,N-dimethyltryptamine]	92.4
NCc1ccccc1 [Benzylamine]	76.3

Test system: Human (mixed gender) hepatocytes
Assay: as above
Conditions: human hepatocytes, MAO inhibitors vs none

SMILES	quicker intrinsic clearance in the presence of MAO inhibitors [%]	slower intrinsic clearance with inclusion of MAO inhibitors [%]
[2H]C([2H])(Cc1c[nH]c2ccccc12)N(C)C [SPL028i, α,α-dideutero-N,N-dimethyltryptamine]	~5	–
CN(C)CCc1c[nH]c2ccccc12 [SPL026, N,N-dimethyltryptamine]	–	~4

Same assay, conditions: initial human hepatocyte studies

SMILES	change in intrinsic clearance and half-life compared to SPL026 [fold]
[2H]C([2H])(Cc1c[nH]c2ccccc12)N(C)C [SPL028i, α,α-dideutero-N,N-dimethyltryptamine]	~2

Same assay, conditions: with MAO inhibitors vs no inhibitors, human hepatocytes

SMILES	Half-life % change [%]	Intrinsic clearance % change [%]
[2H]C([2H])(Cc1c[nH]c2ccccc12)N(C)C [SPL028i, α,α-dideutero-N,N-dimethyltryptamine]	−5.33	4.67
NCCc1c[nH]c2ccc(O)cc12 [Serotonin]	73.75	−282.18
CN(C)CCc1c[nH]c2ccccc12 [SPL026, N,N-dimethyltryptamine]	3.82	−4.00
NCc1ccccc1 [Benzylamine]	>83.41	<−450
